Experimental data: paper PMC3249837 (ACS chemical neuroscience, 2011)

Tested on: PS1ΔE9
Assay type: binding
Details: competitor at 10 µM, probes at 200 nM

CC(C)CC[C@H](c1ccc(Cl)cc1)N1CC[C@@H](CC(=O)O)C[C@H]1c1ccc(C(F)(F)F)cc1 [Compound 1]
Competition of probe 4 and 5 labeling of PS1ΔE9 proteoliposomes: blocked
